Assay results: patent US20220397565A1, “METHODS OF SCREENING AND RELATED SYSTEMS” (RECURSION PHARMACEUTICALS, INC., priority 2021, published 2022)

How the values were obtained:
[1] = system: Cells transduced with BacMam BRAF V600E; test: Morphological profiling of BacMam BRAF V600E transduced cells treated with test agents; format: cell-based; conditions: for side effect score versus disease score (position relative to the funnel, FIG. 10): cells expressing BRAF V600E, varying concentrations of compound, dot plot FIG. 10; for quantified reversal of the disease state (rescue of BRAF V600E overexpression phenotype): morphological profile of treated vs not treated BRAF V600E-transduced cells, 18 compounds tested
Excerpt: (§1) Morphological profiles may be generated by various methods. In an embodiment, morphologically profiling cells may comprise imaging relevant cells or tracking certain parameters or features of the cells. The tracking may be of staining intensities in one or more imaging channels, correlations between imaging channels, textural patterns, size and shape of cellular structures, geometric relationships between intracellular structures, geometric relationships between adjacent cells, or combinations thereof. Cellular features, such as 100 or more cellular features, 500 or more cellular features, or 1000 or more cellular features, may be tracked when morphologically profiling cells. Among various methods of determining these cellular features, they may be obtained by imaging cells with or without fluorescent or non-fluorescent stains or combinations thereof, and numeric features determined by using deep learning embeddings, hand-tuned feature extraction, or combinations thereof. Other than tracking the cellular features, the morphological profiling may include reducing the output of the cellular features using statistical modeling such as principal component analysis.
Pathogenic and non-pathogenic transduced cells were cultured then morphologically profiled. A heatmap of cosine similarities between all pairs of groups (or reagents), origined by method one were generated (FIG. 7). Shown are cells transduced with BacMam vectors having BRAF V600E, KRAS G12C, KRAS G12D, MFN1, MFN1T109A, CTNNB1B, EPAS1, SMO F460L, ALK, EGFR, and some of their nonsense counterparts. […] Cosine similarities between all pairs of feature vectors that were origin by method two in FIG. 7 (FIG. 8).
Cells transduced with BacMam BRAF V600E were treated with varying concentrations of 18 compounds which include dabrafenib and vemurafenib, which target BRAF, and ulixertinib and MEK162, which target downstream biology. […] The difference in features caused by transducing the cells with BRAF V600E was determined. The effect of compounds on those features was determined within the BRAF V600E-transduced cells and also the effects of compounds on features not related to transduction with BRAF V600E. […] The efficacy of test agents in reversing a disease state can be quantified. This is calculated based on morphological profiling of cells treated with a test agent compared to cells not treated with a test agent.

[2] = system: EGFR-overexpressing cells; test: Morphological profiling of BacMam EGFR transduced cells treated with test agents; format: cell-based; conditions: cosine similarity, treated vs not-treated EGFR overexpressing cells, FIG. 9
Excerpt: as §1

| SMILES | side effect score versus disease score (position relative to the funnel, FIG. 10) [1] | quantified reversal of the disease state (rescue of BRAF V600E overexpression phenotype) [1] | quantification of the reversal of the disease state (modulation of phenotypes of EGFR overexpressing cells) [2] |
| --- | --- | --- | --- |
| CC(C)Nc1cc(-c2c[nH]c(C(=O)N[C@H](CO)c3cccc(Cl)c3)c2)c(Cl)cn1 [ulixertinib] | Separation from the funnel | some of the top test agents | – |
| Cn1cnc2c(F)c(Nc3ccc(Br)cc3F)c(C(=O)NOCCO)cc21 [MEK162] | Separation from the funnel | some of the top test agents | – |
| COc1cc2ncnc(Nc3ccc(F)c(Cl)c3)c2cc1NC(=O)/C=C/CN1CCCCC1 [dacomitinib] | – | – | top two test agents |
| CC(C)(C)c1nc(-c2cccc(NS(=O)(=O)c3c(F)cccc3F)c2F)c(-c2ccnc(N)n2)s1 [dabrafenib] | Separation from the funnel | some of the top test agents | – |
